Laboratory results: US7960549B2, “Solid forms of a chemokine receptor antagonist and methods of use thereof” (priority 2004, dated 2011)
Where a name gives a salt, the structure may show the parent alone.

Tests used:
Format in all cases: physicochemical
[1] = Thermal gravimetric analysis (TGA)
Protocol: Measurements utilizing thermal gravimetric analysis (TGA) are carried out on a T.A. instruments TGAQ500 analyzer. Mass calibration is performed with 10 and 100 mg certified masses. Temperature calibration is performed with Alumel® and nickel standards (Curie points of respectively 154° C. and 354° C.). Samples are exposed to a constant nitrogen stream of 60 ml/min, and temperature ranges from room temperature to 350° C. at a 5° C./min rate. The quantity of product tested is between 2 and 13 mg. The sample is deposited in an open aluminum sample pan, which is itself placed in a platinum pan. The temperatures identified from TGA scans of a particular sample are accurate to within ±3° C. Simultaneous TGA and DSC measurements are carried out using a […] thermal analysis system produced by the […] corporation. A liquid nitrogen cooling system makes it possible to work at temperatures below 20° C. The emitted gases, upon sample heating, are carried by a transfer capillary tube to a Pfeiffer mass spectrometer, the capillary tube heated to 150° C. The mass spectrometer can analyze molecular fragments at <<m/e>> ratios between 1 and 200 uma. A sample with a mass between 1 and 27 mg is contained in an open concave aluminum sample pan (75 μL capacity) exposed to a nitrogen stream. The sample is heated at a rate of 1 or 5° C./min.

[2] = Water sorption/desorption cycling (dynamic vapor sorption, DVS) at 25° C., with XRPD before and after; settings: for global / net weight loss after all 4 water sorption/desorption cycles: four cycles between 100% and 0% relative humidity; for XRPD before and after water sorption/desorption cycling: four consecutive cycles, start at 40%, cycled between 100% and 0% relative humidity, mixed samples
Protocol: Water sorption measurements are performed on a DVS-1 automated gravimetric vapor sorption analyser (Surface Measurement Systems Ltd., London, UK). The DVS-1 measures the uptake and loss of vapor gravimetrically using a Cahn D200 recording ultra-microbalance with a mass resolution of ±0.1 μg. The relative humidity around the sample is controlled by mixing saturated and dry carrier gas streams using mass flow controllers. The temperature is maintained within ±0.1° C. by enclosing the entire system in a temperature-controlled incubator. A sample size between 15 and 20 mg is used. In general, the error in % (w/w) identified in a tested sample is ±0.1% (w/w).
Two protocols are utilized to operate the DVS. In one protocol, a sample is dried at 0% relative humidity (RH) to remove any surface water present and establish a dry, baseline mass. Next, the sample is exposed to the following relative humidity profile: 0%, 10%, 20%, 30%, 40%, 50%, 60%, 70%, 80%, 90%, 80%, 70%, 60%, 50%, 40%, 30%, 20%, 10%, 0%. In some instances, this profile is repeated, yielding 4 sets of data going up and down in RH. In another protocol, the sample is first equilibrated at 40% RH, then it was exposed to the following relative humidity profile: 40%, 50%, 60%, 70%, 80%, 90%, 100%, 90%, 80%, 70%, 60%, 50% 40% 30%, 20% 10%, 0%, 10%, 20%, 30%, 40%. […] If equilibrium state is not reached, the change in relative humidity took place automatically after 360 or 600 minutes. From the complete moisture sorption and desorption profile, an isotherm is calculated using the DVS Advanced Analysis Suite v3.6. All experiments were performed at 25° C.

[3] = Differential scanning calorimetry (DSC)
Protocol: Differential scanning calorimetry (DSC) analyses are performed using a T.A Instruments Q1000 thermal analyser. Analyses are carried out using nitrogen purge gas flowing at an average rate of 50 ml/min. A mechanical compressor cools the system, and equilibrates the instruments being used at ambient temperature between analyses. […] Energy calibration is performed with a certified indium calibrator (melting enthalpy of 28.45 J/g), applying a heating rate of 5° C./min. The temperatures identified from DSC scans of a particular sample are accurate to within ±3° C. […] Modulated temperature differential scanning calorimetry (MTDSC) is also used since deconvolution of the total heat flow into reversing and non-reversing heat flows allows the transitions to be easily identified. The samples were submitted to the same experimental temperature program: after the equilibration of the sample at −5° C., the samples were heated through a modulated program from −5° C. to 210° C. at a rate of 1° C./min. […] Experiments are performed using crimped aluminium sample pans or open pans in some cases. The quantity of product analysed is typically between 2 and 13 mg.

[4] = Controlled temperature (isothermal) X-ray powder diffraction: thermal stability of the crystalline form; settings: dry nitrogen; for form conversion as the temperature is raised (isothermal XRPD): ambient to 210° C.; for loss of stability (lines unique to the form disappear), isothermal XRPD: sample containing Forms E, F, and G, steps of 10° C.
Protocol: X-ray powder diffraction (XRPD) is performed on various samples of the Citrate Salt using one of three instruments. XRPD measurements with Instrument 1 utilize a Siemens-Bruker D5000 Matic powder diffractometer with a Bragg-Brentano (vertical θ-2θ configuration) parafocusing geometry. X-rays are produced from a sealed cobalt anode running at 40 kV and 30 mA. Two lines are typically emitted: CoKα1 (λ=1.7890 Å) and CoKα2 (λ=1.7929 Å). An iron β-filter limits the CoKβ (λ=1.6208 Å) radiation to about 1% of the diffracted beam at the detector. The primary beam passes through a parallel plate collimator (0.2 mm Soller slits), then through a divergence slit (0.2 mm). Diffracted X-rays are detected with a Braun 50 M multichannel linear detector having a 10°-wide detection window in angle 2θ. Scans are performed from 1.5° to 50.0° in 2θ, the scan time being 10 to 40 seconds per degree in 2θ. The error in the 2θ locations are typically within ±0.10 degrees.
In Instrument 3, XRPD measurements are performed at different temperatures to elucidate the evolution of crystal structure with temperature. Tests are carried out with a Siemens-Bruker D5000 diffractometer equipped with the Bragg Brentano parafocusing (θ-θ) geometry and an Anton-Paar TTK temperature chamber. Measurements utilize dry nitrogen or nitrogen streams having a particular humidity. The instrument specifications are substantially similar to the Siemens-Bruker D5000 Matic instrument described above (Instrument 1). Temperature is allowed to rise at a rate of 0.05° C./sec. Scans are recorded under the following conditions: a 1.5 to 50.0 degree scan in angle 2θ, 10 to 20 seconds counting time per degree in 2θ. Data are acquired in isotherm mode when the requested temperature is reached.

[5] = weight transition 2811 (conversion away from Form E), 5° C./min
[6] = weight transition 2812 (conversion away from Form F), 5° C./min
[7] = weight transition 2813 (conversion away from Form G), 5° C./min
[8] = weight transition 2814 (decomposition/melting of crystalline Form B, loss of citrate), 5° C./min
[9] = 25° C., listed as Forms E, F, and G
[10] = transition 3411 (first endothermic transition, conversion of Form E to Form B), heating rate 5° C./min
[11] = transition 3412 (second endothermic transition, conversion of Form F to Form B), heating rate 5° C./min
[12] = transition 3413 (third endothermic transition, conversion of Form G to Form B), heating rate 5° C./min
[13] = transition 3414 (fourth endothermic transition, decomposition/melting of crystalline Form B), heating rate 5° C./min
[14] = mixture of Forms A and D, 0.3° C./min, Form D: conversion to Form A, Form A: melting/decomposition
[15] = sample containing Forms A and D, 5° C./min
[16] = mixture of Forms A and D, 0.3° C./min
[17] = heating rate 5° C./min, sample of the single form (Form H formed from Form E sample), ±3° C.
[18] = heating rate 5° C./min, A, B, H: melting/decomposition, E: loss of water and conversion to Form H, ±3° C.

## CC(C)(O)c1ccc2c(c1)/C(=C/CCN1CC[C@](O)(c3ccc(Cl)cc3)C(C)(C)C1)c1cccnc1CO2 [Form E, F, and G]
[1]; [5]
  Interpolated Starting T (° C.): 42 °C
  T (° C.) corresponding to Max. Rate of Weight Change: 50 °C
  Weight Loss % (w/w): 1.9 % (w/w)
[1]; [6]
  Interpolated Starting T (° C.): 110 °C
  T (° C.) corresponding to Max. Rate of Weight Change: 123 °C
  Weight Loss % (w/w): 3.6 % (w/w)
[1]; [7]
  Interpolated Starting T (° C.): 131 °C
  T (° C.) corresponding to Max. Rate of Weight Change: 138 °C
  Weight Loss % (w/w): 1.6 % (w/w)
[1]; [8]
  Interpolated Starting T (° C.): 166 °C
  T (° C.) corresponding to Max. Rate of Weight Change: 187 °C
  Weight Loss % (w/w): 22.6 % (w/w)
[2]; [9]
  global / net weight loss after all 4 water sorption/desorption cycles: about 7.5 % (w/w)
  weight change / water uptake between 10% and 90% relative humidity: 2.10 % (w/w)
  weight gain / water uptake as relative humidity is increased from 0% to 10%: 3.76 % (w/w)
[3]; [10]
  Integrated Enthalpy Change: 20.3 J/g
  Interpolated Starting T: 78 °C
  Tmax: 99 °C
[3]; [11]
  Integrated Enthalpy Change: 5.8 J/g
  Interpolated Starting T: 119 °C
  Tmax: 124 °C
[3]; [12]
  Integrated Enthalpy Change: 2.4 J/g
  Interpolated Starting T: 131 °C
  Tmax: 136 °C
[3]; [13]
  Interpolated Starting T: 165 °C
  Tmax: 181 °C

## CC(C)(O)c1ccc2c(c1)/C(=C/CCN1CC[C@](O)(c3ccc(Cl)cc3)C(C)(C)C1)c1cccnc1CO2 [Form F, citrate salt of (S)-4-(4-Chloro-phenyl)-1-{3-[7-(1-hydroxy-1-methyl-ethyl)-11H-10-oxa-1-aza-dibenzo[a,d]cyclohepten-5-ylidene]-propyl}-3,3-dimethyl-piperidin-4-ol]
[4]
  form conversion as the temperature is raised (isothermal XRPD): converts to Form B
  loss of stability (lines unique to the form disappear), isothermal XRPD: greater than 110 °C
[2]; 25° C.
  XRPD before and after water sorption/desorption cycling: disappears

## CC(C)(O)c1ccc2c(c1)/C(=C/CCN1CC[C@](O)(c3ccc(Cl)cc3)C(C)(C)C1)c1cccnc1CO2 [Form G, citrate salt of (S)-4-(4-Chloro-phenyl)-1-{3-[7-(1-hydroxy-1-methyl-ethyl)-11H-10-oxa-1-aza-dibenzo[a,d]cyclohepten-5-ylidene]-propyl}-3,3-dimethyl-piperidin-4-ol]
[4]
  form conversion as the temperature is raised (isothermal XRPD): converts to Form B
  loss of stability (lines unique to the form disappear), isothermal XRPD: ≥ 130 °C
[2]; 25° C.
  XRPD before and after water sorption/desorption cycling: have dissipated

## CC(C)(O)c1ccc2c(c1)/C(=C/CCN1CC[C@](O)(c3ccc(Cl)cc3)C(C)(C)C1)c1cccnc1CO2 [Form D, citrate salt of (S)-4-(4-Chloro-phenyl)-1-{3-[7-(1-hydroxy-1-methyl-ethyl)-11H-10-oxa-1-aza-dibenzo[a,d]cyclohepten-5-ylidene]-propyl}-3,3-dimethyl-piperidin-4-ol]
[4]; sample containing Forms A and D
  transition to Form A observed by temperature controlled XRPD: below 60 °C
[2]; 25° C.
  XRPD before and after water sorption/desorption cycling: disappeared after the cycling; only the signature of Form A remains
[3]; [14]
  DSC endothermic transition, Tmax: 52 °C
  DSC endothermic transition, interpolated beginning temperature: about 47 °C
[3]; mixture of Forms A and D, 0.3° C./min, conversion of Form D to Form A
  DSC endothermic transition, integrated enthalpy: 3.7 J/g

## CC(C)(O)c1ccc2c(c1)/C(=C/CCN1CC[C@](O)(c3ccc(Cl)cc3)C(C)(C)C1)c1cccnc1CO2 [Forms A and D]
[1]; [15]
  TGA second weight loss transition 1812, interpolated beginning temperature: 164 °C
  TGA second weight loss transition 1812, temperature of maximum weight loss rate: 180 °C
[2]; 25° C.
  global / net weight loss after all 4 water sorption/desorption cycles: about 14.3 % (w/w)
[3]; [16]
  DSC endothermic transition 1912 (release of THF), Tmax: 77 °C
  DSC endothermic transition 1912 (release of THF), beginning temperature: about 60 °C
  DSC endothermic transition 1912 (release of THF), enthalpy: 18.1 J/g

## CC(C)(O)c1ccc2c(c1)/C(=C/CCN1CC[C@](O)(c3ccc(Cl)cc3)C(C)(C)C1)c1cccnc1CO2 [Form H, citrate salt of (S)-4-(4-Chloro-phenyl)-1-{3-[7-(1-hydroxy-1-methyl-ethyl)-11H-10-oxa-1-aza-dibenzo[a,d]cyclohepten-5-ylidene]-propyl}-3,3-dimethyl-piperidin-4-ol]
[1]; heating rate 5° C./min, sample of the single form (Form H formed from Form E sample)
  TGA weight loss of the transition: 20.10 % (w/w)
[1]; [17]
  TGA weight loss transition, interpolated beginning temperature: 127 °C
  TGA weight loss transition, temperature of maximum rate of weight loss: 142 °C
[2]; ambient temperatures
  behaviour when exposed to 10% relative humidity or higher: reversibly transforms into form E
[3]; [18]
  DSC endothermic transition, Tmax: 141 °C
  DSC endothermic transition, interpolated beginning temperature: 131 °C
